Assays:
[1] = tested on: LPS-activated primary peritoneal macrophages; test: IL-6 and TNF-α secretion by ELISA; format: cell-based, C57BL/6 mice; conditions: 10-40 µM, LPS 1 µg/ml 24 h
Procedure: The effects of the test samples on IL-1β, TNF-α, and IL-6 production were measured by ELISA according to the manufacturer’s instructions. In brief, 50 µl of biotinylated antibody reagent and 50 µl of supernatant were added to a stripwell plate precoated with anti-mouse IL-1β, TNF-α, or IL-6 antibodies, which was then incubated at room temperature for 2 h. After washing the plate three times with washing buffer, 100 µl of diluted streptavidin-HRP concentrate was added to each well and the plate incubated at room temperature for 30 min. […] After addition of 100 µl of stop solution to each well, the absorbance at 450 nm of each well was measured on a microplate reader.
Figure 3 Effect of compound 1h on LPS-induced secretion of IL-6 and TNF-α by J774A.1 macrophages, peritoneal macrophages, and JAWSII dendritic cells. (A) J774A.1 macrophages, (B) peritoneal macrophages, or (C) JAWSII dendritic cells (all 4 × 10^5/ml; 1 ml) were incubated for 30 min with 10-40 µM compound 1h or DMSO, then LPS (1 µg/ml) was added and incubation continued for 24 h, then IL-6 levels (left panels) and TNF-α levels (right panels) in the culture medium were measured by ELISA. The data are expressed as the mean ± SD for three separate experiments. *, **, and *** indicate a significant difference at the level of p < 0.05, p < 0.01, or p < 0.001, respectively, compared to the DMSO/LPS group.

[2] = tested on: RAW-Blue cells (RAW 264.7 with NF-κB reporter gene); test: NF-κB reporter assay (SEAP, QUANTI-Blue); format: cell-based, murine; conditions: 2.5-40 µM 30 min, LPS 1 µg/ml 24 h
Procedure: RAW-Blue™ cells, RAW 264.7 macrophages stably expressing the gene for secreted embryonic alkaline phosphatase (SEAP) inducible by NF-κB, were seeded in 60 mm dishes at a density of 5 × 10^5 cells/ml (1 ml) and grown overnight in a 5% CO2 incubator at 37 °C. They were then pretreated with vehicle or compound 1h for 30 min, then LPS (1 µg/ml) was added and incubation continued for 24 h. The medium was then harvested and 20 µl aliquots mixed with 200 µl of QUANTI-Blue™ medium (InvivoGen) in 96-well plates and incubated at 37 °C for 15 min, then SEAP activity was assessed by measuring the optical density at 655 nm using an ELISA reader.
Following LPS stimulation, IκB in the complex is phosphorylated by IκB kinase (IKK), ubiquitinated, and rapidly degraded in proteasomes, thus releasing NF-κB [30].
Figure 6 Effect of compound 1h on NF-κB activation in LPS-activated macrophages. (A) RAW 264.7 macrophages or (B) J774A.1 macrophages (both 5 × 10^5/ml; 1 ml) were incubated for 30 min with 10-40 µM compound 1h or DMSO, then LPS (1 µg/ml) was added and incubation continued for 20 min, then levels of phosphorylated and total IKK-α and IκB-α were measured by Western blotting. (C) RAW 264.7 macrophages or (D) J774A.1 macrophages (both 5 × 10^5/ml; 1 ml) were treated as in A and B, then nuclear translocation of NF-κB was analyzed by ELISA. […]

O=c1cc(O)cc(/C=C/C=C/C=C/C=C/c2[nH]ccc2Cl)o1 [compound 1h]
LPS-induced IL-6 secretion [1]: reduced secretion of IL-6 and TNF-α | LPS-induced TNF-α secretion [1]: reduced secretion of IL-6 and TNF-α | NF-κB transcriptional activity (SEAP reporter) [2]: reduced
